Active and inactive are the calls of the source.
Columns and labels:
[1] = target: T1, ORF 73 (Human herpesvirus 8, UniProt O40947); assay: KSHV LANA DNA-binding disruption – biochemical, fluorescence polarization, cherry-picked samples, dose response (AID 504725); parameters: species or system Human gammaherpesvirus 8;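 note: fluorescence polarization of a labeled DNA duplex reporting LANA DNA binding; potency is for inhibitors that block LANA binding to the DNA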
T1 sequence (O40947 whole entry): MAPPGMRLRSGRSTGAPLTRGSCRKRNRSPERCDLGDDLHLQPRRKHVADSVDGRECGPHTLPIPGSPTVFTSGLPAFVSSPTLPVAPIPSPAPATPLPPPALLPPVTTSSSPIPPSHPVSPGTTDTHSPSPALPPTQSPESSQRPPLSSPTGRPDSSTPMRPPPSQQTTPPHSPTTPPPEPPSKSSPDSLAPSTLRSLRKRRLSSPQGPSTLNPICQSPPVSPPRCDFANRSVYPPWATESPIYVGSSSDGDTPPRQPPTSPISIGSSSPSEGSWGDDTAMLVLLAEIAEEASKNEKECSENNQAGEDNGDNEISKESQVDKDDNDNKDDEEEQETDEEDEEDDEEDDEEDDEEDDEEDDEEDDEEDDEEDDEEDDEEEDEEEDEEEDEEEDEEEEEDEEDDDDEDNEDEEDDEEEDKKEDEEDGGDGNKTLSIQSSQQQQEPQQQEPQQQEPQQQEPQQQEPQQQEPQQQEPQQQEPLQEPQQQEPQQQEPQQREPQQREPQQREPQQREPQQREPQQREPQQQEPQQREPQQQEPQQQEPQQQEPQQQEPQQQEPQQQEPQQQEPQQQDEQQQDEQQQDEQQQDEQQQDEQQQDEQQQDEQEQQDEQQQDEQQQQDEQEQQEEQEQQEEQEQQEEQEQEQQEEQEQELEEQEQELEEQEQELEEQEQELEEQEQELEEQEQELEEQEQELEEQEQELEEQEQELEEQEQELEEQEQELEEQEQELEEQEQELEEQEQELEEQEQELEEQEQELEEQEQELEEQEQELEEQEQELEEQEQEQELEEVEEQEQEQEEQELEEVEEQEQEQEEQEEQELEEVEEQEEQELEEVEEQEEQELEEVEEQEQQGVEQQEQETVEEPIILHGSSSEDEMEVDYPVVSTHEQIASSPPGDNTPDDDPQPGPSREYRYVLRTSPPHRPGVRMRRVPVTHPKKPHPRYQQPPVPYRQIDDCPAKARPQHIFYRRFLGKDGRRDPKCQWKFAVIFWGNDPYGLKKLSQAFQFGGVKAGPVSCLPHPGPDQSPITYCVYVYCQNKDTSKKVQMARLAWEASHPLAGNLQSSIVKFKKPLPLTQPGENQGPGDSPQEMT

[2] = target: T2, 1-phosphatidylinositol 4,5-bisphosphate phosphodiesterase gamma-1 (Homo sapiens, UniProt P19174); assay: Counterscreen for inhibitors of phospholipase C isozymes (PLC-B3): Fluorescence-based biochemical high throughput dose response assay to identify inhibitors of phospholipase C isozymes (PLC-gamma1).
T2 sequence (P19174 whole entry): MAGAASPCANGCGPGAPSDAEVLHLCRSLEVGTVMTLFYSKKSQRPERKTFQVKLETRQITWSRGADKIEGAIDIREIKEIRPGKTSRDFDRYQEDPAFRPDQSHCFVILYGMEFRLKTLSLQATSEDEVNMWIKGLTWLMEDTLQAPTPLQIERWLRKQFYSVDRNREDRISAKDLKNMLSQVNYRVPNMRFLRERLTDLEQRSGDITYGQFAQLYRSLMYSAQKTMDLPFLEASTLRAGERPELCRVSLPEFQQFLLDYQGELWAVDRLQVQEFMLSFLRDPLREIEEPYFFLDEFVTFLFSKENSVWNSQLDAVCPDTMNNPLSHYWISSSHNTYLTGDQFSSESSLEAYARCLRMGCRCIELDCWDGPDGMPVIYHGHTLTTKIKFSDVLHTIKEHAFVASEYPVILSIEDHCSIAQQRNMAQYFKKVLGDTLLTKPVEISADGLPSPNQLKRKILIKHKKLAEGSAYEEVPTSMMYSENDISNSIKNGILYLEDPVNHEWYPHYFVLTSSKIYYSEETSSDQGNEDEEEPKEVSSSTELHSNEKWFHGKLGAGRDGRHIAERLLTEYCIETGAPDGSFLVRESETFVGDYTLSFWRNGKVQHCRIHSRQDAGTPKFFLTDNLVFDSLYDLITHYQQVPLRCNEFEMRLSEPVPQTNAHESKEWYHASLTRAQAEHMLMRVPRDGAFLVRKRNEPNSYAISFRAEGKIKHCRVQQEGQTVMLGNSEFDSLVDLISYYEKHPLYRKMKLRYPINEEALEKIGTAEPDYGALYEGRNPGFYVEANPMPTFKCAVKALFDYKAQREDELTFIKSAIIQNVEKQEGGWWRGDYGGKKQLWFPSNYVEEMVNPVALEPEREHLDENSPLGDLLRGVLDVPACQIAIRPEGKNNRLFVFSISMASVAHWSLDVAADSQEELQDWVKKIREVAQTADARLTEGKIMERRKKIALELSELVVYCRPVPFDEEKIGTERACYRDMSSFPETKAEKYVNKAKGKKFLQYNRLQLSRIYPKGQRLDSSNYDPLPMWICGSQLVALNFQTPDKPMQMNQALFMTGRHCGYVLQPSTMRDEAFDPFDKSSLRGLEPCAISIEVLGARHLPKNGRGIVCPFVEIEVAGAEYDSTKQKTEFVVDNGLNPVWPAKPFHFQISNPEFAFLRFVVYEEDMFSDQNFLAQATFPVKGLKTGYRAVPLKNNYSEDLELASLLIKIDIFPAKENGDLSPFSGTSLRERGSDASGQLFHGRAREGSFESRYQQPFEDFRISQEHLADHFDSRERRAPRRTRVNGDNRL

| SMILES | AC50 [1] | IC50 [2] |
| --- | --- | --- |
| CCN(CC)CCN1C(=O)c2cccc3cc(N)cc(c23)C1=O | 17.1 µM (active) |  |
| O=C(O)c1cccc(-n2cccc2/C=C2/NC(=O)N(c3ccc(Cl)cc3)C2=O)c1 | 23.3 µM (active) | > 122 µM (inactive) |
| O=S(=O)(O)c1cc(Cl)cc(N=Nc2ccc(O)cc2O)c1O | 70.2 µM (active) | > 122 µM (inactive) |

From ChEMBL document CHEMBL1201862, “PubChem BioAssay data set” (2004)
